Laboratory results taken from US20250147039A1, “Compounds for complexation of rare earth elements and/or s-, p-, d- block metals, their coordination compounds, peptide conjugates, method of their preparation and use thereof” (USTAV ORGANICKE CHEMIE A BIOCHEMIE AV CR V.V.I., priority 2021, published 2025).

Assays:
[1] = Formation of 1,5-cz-[Ln(Lig)] from Lig and Ln^III ions (metal dependent click-zip), MOPS/NaOH buffer pH 7.0, analytical HPLC (Charts 1, 2); settings: MOPS/NaOH buffer pH 7.0
[2] = Formation of 1,5-cz-[M(Lig)] from Lig and M^III ions (metal dependent click-zip) (Charts 4, 5); format: physicochemical; settings: MOPS/NaOH buffer pH 7.0; for conversion to 1,5-cz-[M(Lig)], Sc^III / conversion to 1,5-cz-[M(Lig)], Y^III: TD728, TD827 in 50% i-PrOH; for conversion to 1,5-cz-[M(Lig)], Y^III: TD714 sum of two diastereoisomers

C#Cc1cccc(CN2CCN(CC(=O)O)CCN(Cc3cc(C(=O)OC(C)C)cc(CN=[N+]=[N-])n3)CCN(CC(=O)O)CC2)n1 [TD1148]
conversion to 1,5-cz-[Ln(Lig)] with hydrolysed group in the side chain, Ce^III ([1]; after 1 week at 80° C.): 27% | conversion to 1,5-cz-[Ln(Lig)], Ce^III ([1]; after 1 week at 80° C.): 0% | conversion to 1,5-cz-[Ln(Lig)] with hydrolysed group in the side chain, Ce^III ([1]; after 1 hour at 80° C.): 0% | conversion to 1,5-cz-[Ln(Lig)], Ce^III ([1]; after 1 hour at 80° C.): 0% | conversion to 1,5-cz-[Ln(Lig)] with hydrolysed group in the side chain, Dy^III ([1]; after 1 week at 80° C.): 93% | conversion to 1,5-cz-[Ln(Lig)], Dy^III ([1]; after 1 week at 80° C.): 0% | conversion to 1,5-cz-[Ln(Lig)] with hydrolysed group in the side chain, Dy^III ([1]; after 1 hour at 80° C.): 2% | conversion to 1,5-cz-[Ln(Lig)], Dy^III ([1]; after 1 hour at 80° C.): 14% | conversion to 1,5-cz-[Ln(Lig)] with hydrolysed group in the side chain, Er^III ([1]; after 1 week at 80° C.): 94% | conversion to 1,5-cz-[Ln(Lig)], Er^III ([1]; after 1 week at 80° C.): 0% | conversion to 1,5-cz-[Ln(Lig)] with hydrolysed group in the side chain, Er^III ([1]; after 1 hour at 80° C.): 4% | conversion to 1,5-cz-[Ln(Lig)], Er^III ([1]; after 1 hour at 80° C.): 33% | conversion to 1,5-cz-[Ln(Lig)] with hydrolysed group in the side chain, Eu^III ([1]; after 1 week at 80° C.): 90% | conversion to 1,5-cz-[Ln(Lig)], Eu^III ([1]; after 1 week at 80° C.): 0% | conversion to 1,5-cz-[Ln(Lig)] with hydrolysed group in the side chain, Eu^III ([1]; after 1 hour at 80° C.): 0% | conversion to 1,5-cz-[Ln(Lig)], Eu^III ([1]; after 1 hour at 80° C.): 4% | conversion to 1,5-cz-[Ln(Lig)] with hydrolysed group in the side chain, Gd^III ([1]; after 1 week at 80° C.): 90% | conversion to 1,5-cz-[Ln(Lig)], Gd^III ([1]; after 1 week at 80° C.): 0% | conversion to 1,5-cz-[Ln(Lig)] with hydrolysed group in the side chain, Gd^III ([1]; after 1 hour at 80° C.): 1% | conversion to 1,5-cz-[Ln(Lig)], Gd^III ([1]; after 1 hour at 80° C.): 5% | conversion to 1,5-cz-[Ln(Lig)] with hydrolysed group in the side chain, Ho^III ([1]; after 1 week at 80° C.): 94% | conversion to 1,5-cz-[Ln(Lig)], Ho^III ([1]; after 1 week at 80° C.): 0% | conversion to 1,5-cz-[Ln(Lig)] with hydrolysed group in the side chain, Ho^III ([1]; after 1 hour at 80° C.): 3% | conversion to 1,5-cz-[Ln(Lig)], Ho^III ([1]; after 1 hour at 80° C.): 21% | conversion to 1,5-cz-[Ln(Lig)] with hydrolysed group in the side chain, La^III ([1]; after 1 week at 80° C.): 36% | conversion to 1,5-cz-[Ln(Lig)], La^III ([1]; after 1 week at 80° C.): 0% | conversion to 1,5-cz-[Ln(Lig)] with hydrolysed group in the side chain, La^III ([1]; after 1 hour at 80° C.): 0% | conversion to 1,5-cz-[Ln(Lig)], La^III ([1]; after 1 hour at 80° C.): 0% | conversion to 1,5-cz-[Ln(Lig)] with hydrolysed group in the side chain, Lu^III ([1]; after 1 week at 80° C.): 96% | conversion to 1,5-cz-[Ln(Lig)], Lu^III ([1]; after 1 week at 80° C.): 0% | conversion to 1,5-cz-[Ln(Lig)] with hydrolysed group in the side chain, Lu^III ([1]; after 1 hour at 80° C.): 6% | conversion to 1,5-cz-[Ln(Lig)], Lu^III ([1]; after 1 hour at 80° C.): 57% | conversion to 1,5-cz-[Ln(Lig)] with hydrolysed group in the side chain, Nd^III ([1]; after 1 week at 80° C.): 71% | conversion to 1,5-cz-[Ln(Lig)], Nd^III ([1]; after 1 week at 80° C.): 0% | conversion to 1,5-cz-[Ln(Lig)] with hydrolysed group in the side chain, Nd^III ([1]; after 1 hour at 80° C.): 0% | conversion to 1,5-cz-[Ln(Lig)], Nd^III ([1]; after 1 hour at 80° C.): 1% | conversion to 1,5-cz-[Ln(Lig)] with hydrolysed group in the side chain, Pr^III ([1]; after 1 week at 80° C.): 61% | conversion to 1,5-cz-[Ln(Lig)], Pr^III ([1]; after 1 week at 80° C.): 0% | conversion to 1,5-cz-[Ln(Lig)] with hydrolysed group in the side chain, Pr^III ([1]; after 1 hour at 80° C.): 0% | conversion to 1,5-cz-[Ln(Lig)], Pr^III ([1]; after 1 hour at 80° C.): 0% | conversion to 1,5-cz-[Ln(Lig)] with hydrolysed group in the side chain, Sm^III ([1]; after 1 week at 80° C.): 86% | conversion to 1,5-cz-[Ln(Lig)], Sm^III ([1]; after 1 week at 80° C.): 0% | conversion to 1,5-cz-[Ln(Lig)] with hydrolysed group in the side chain, Sm^III ([1]; after 1 hour at 80° C.): 0% | conversion to 1,5-cz-[Ln(Lig)], Sm^III ([1]; after 1 hour at 80° C.): 3% | conversion to 1,5-cz-[Ln(Lig)] with hydrolysed group in the side chain, Tb^III ([1]; after 1 week at 80° C.): 91% | conversion to 1,5-cz-[Ln(Lig)], Tb^III ([1]; after 1 week at 80° C.): 0% | conversion to 1,5-cz-[Ln(Lig)] with hydrolysed group in the side chain, Tb^III ([1]; after 1 hour at 80° C.): 1% | conversion to 1,5-cz-[Ln(Lig)], Tb^III ([1]; after 1 hour at 80° C.): 9% | conversion to 1,5-cz-[Ln(Lig)] with hydrolysed group in the side chain, Tm^III ([1]; after 1 week at 80° C.): 95% | conversion to 1,5-cz-[Ln(Lig)], Tm^III ([1]; after 1 week at 80° C.): 0% | conversion to 1,5-cz-[Ln(Lig)] with hydrolysed group in the side chain, Tm^III ([1]; after 1 hour at 80° C.): 5% | conversion to 1,5-cz-[Ln(Lig)], Tm^III ([1]; after 1 hour at 80° C.): 45% | conversion to 1,5-cz-[Ln(Lig)] with hydrolysed group in the side chain, Yb^III ([1]; after 1 week at 80° C.): 95% | conversion to 1,5-cz-[Ln(Lig)], Yb^III ([1]; after 1 week at 80° C.): 0% | conversion to 1,5-cz-[Ln(Lig)] with hydrolysed group in the side chain, Yb^III ([1]; after 1 hour at 80° C.): 5% | conversion to 1,5-cz-[Ln(Lig)], Yb^III ([1]; after 1 hour at 80° C.): 54% | conversion to 1,5-cz-[Ln(Lig)] with hydrolysed group in the side chain, Sc^III ([2]; 1 week at 80° C.): 11% | conversion to 1,5-cz-[Ln(Lig)] with hydrolysed group in the side chain, Y^III ([2]; 1 week at 80° C.): 94% | conversion to 1,5-cz-[M(Lig)], Sc^III ([2]; 1 week at 80° C.): 0% | conversion to 1,5-cz-[M(Lig)], Y^III ([2]; 1 week at 80° C.): 0% | conversion to 1,5-cz-[Ln(Lig)] with hydrolysed group in the side chain, Sc^III ([2]; 1 hour at 80° C.): 0% | conversion to 1,5-cz-[Ln(Lig)] with hydrolysed group in the side chain, Y^III ([2]; 1 hour at 80° C.): 3% | conversion to 1,5-cz-[M(Lig)], Sc^III ([2]; 1 hour at 80° C.): 0% | conversion to 1,5-cz-[M(Lig)], Y^III ([2]; 1 hour at 80° C.): 18%

[N-]=[N+]=NCc1cccc(CN2CCN(CC(=O)O)CCN(Cc3cccc(C#CI)n3)CCN(CC(=O)O)CC2)n1 [TD1204]
conversion to 1,5-cz-[Ln(Lig)], Ce^III ([1]; after 1 week at 80° C.): 0% | conversion to 1,5-cz-[Ln(Lig)], Ce^III ([1]; after 1 hour at 80° C.): 0% | conversion to 1,5-cz-[Ln(Lig)], Dy^III ([1]; after 1 week at 80° C.): 17% | conversion to 1,5-cz-[Ln(Lig)], Dy^III ([1]; after 1 hour at 80° C.): 2% | conversion to 1,5-cz-[Ln(Lig)], Er^III ([1]; after 1 week at 80° C.): 39% | conversion to 1,5-cz-[Ln(Lig)], Er^III ([1]; after 1 hour at 80° C.): 6% | conversion to 1,5-cz-[Ln(Lig)], Eu^III ([1]; after 1 week at 80° C.): 5% | conversion to 1,5-cz-[Ln(Lig)], Eu^III ([1]; after 1 hour at 80° C.): 1% | conversion to 1,5-cz-[Ln(Lig)], Gd^III ([1]; after 1 week at 80° C.): 5% | conversion to 1,5-cz-[Ln(Lig)], Gd^III ([1]; after 1 hour at 80° C.): 1% | conversion to 1,5-cz-[Ln(Lig)], Ho^III ([1]; after 1 week at 80° C.): 23% | conversion to 1,5-cz-[Ln(Lig)], Ho^III ([1]; after 1 hour at 80° C.): 4% | conversion to 1,5-cz-[Ln(Lig)], La^III ([1]; after 1 week at 80° C.): 0% | conversion to 1,5-cz-[Ln(Lig)], La^III ([1]; after 1 hour at 80° C.): 0% | conversion to 1,5-cz-[Ln(Lig)], Lu^III ([1]; after 1 week at 80° C.): 83% | conversion to 1,5-cz-[Ln(Lig)], Lu^III ([1]; after 1 hour at 80° C.): 18% | conversion to 1,5-cz-[Ln(Lig)], Nd^III ([1]; after 1 week at 80° C.): 1% | conversion to 1,5-cz-[Ln(Lig)], Nd^III ([1]; after 1 hour at 80° C.): 0% | conversion to 1,5-cz-[Ln(Lig)], Pr^III ([1]; after 1 week at 80° C.): 0% | conversion to 1,5-cz-[Ln(Lig)], Pr^III ([1]; after 1 hour at 80° C.): 0% | conversion to 1,5-cz-[Ln(Lig)], Sm^III ([1]; after 1 week at 80° C.): 4% | conversion to 1,5-cz-[Ln(Lig)], Sm^III ([1]; after 1 hour at 80° C.): 1% | conversion to 1,5-cz-[Ln(Lig)], Tb^III ([1]; after 1 week at 80° C.): 10% | conversion to 1,5-cz-[Ln(Lig)], Tb^III ([1]; after 1 hour at 80° C.): 2% | conversion to 1,5-cz-[Ln(Lig)], Tm^III ([1]; after 1 week at 80° C.): 62% | conversion to 1,5-cz-[Ln(Lig)], Tm^III ([1]; after 1 hour at 80° C.): 11% | conversion to 1,5-cz-[Ln(Lig)], Yb^III ([1]; after 1 week at 80° C.): 76% | conversion to 1,5-cz-[Ln(Lig)], Yb^III ([1]; after 1 hour at 80° C.): 15% | conversion to 1,5-cz-[M(Lig)], Sc^III ([2]; 1 week at 80° C.): 16% | conversion to 1,5-cz-[M(Lig)], Y^III ([2]; 1 week at 80° C.): 22% | conversion to 1,5-cz-[M(Lig)], Sc^III ([2]; 1 hour at 80° C.): 0% | conversion to 1,5-cz-[M(Lig)], Y^III ([2]; 1 hour at 80° C.): 3%
